Laboratory results from US10369138B2, “Monobactam organic compounds for the treatment of bacterial infections” (Novartis AG, priority 2014, dated 2019).
Values after ≈ are worked out from the molar mass of the structure shown. Like-named read-outs stand apart in the source and are kept apart here.

How the values were obtained:
E. coli containing KPC-2 = test: MIC by broth microdilution, E. coli containing KPC-2 (Ec KPC2 Iso); type: cell-based; settings: Escherichia coli, read-out: Ec KPC2 Iso (MIC), E. coli containing KPC-2 (carbapenemase from Klebsiella pneumoniae)
Procedure, shortened: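 Host E. coli BW25113 pspB carrying multicopy pBAD18-kan plasmid with constitutive TEM-promoter KPC-2 expression (periplasmic signal sequence); broth microdilution per CLSI in cation-adjusted Mueller-Hinton broth, inoculum ~5×10^5 CFU/mL, compounds twofold serially diluted from DMSO masters (10% DMSO in dilution series added).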

E. coli strain 25922 = test: MIC by broth microdilution, E. coli strain 25922; type: cell-based
Procedure, shortened: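 CLSI broth microdilution in cation-adjusted Mueller-Hinton broth, inoculum about 5×10^5 CFU/mL, 10% DMSO from the diluted series, 20 h at 35-37° C. MIC is the lowest concentration preventing visible growth, read by eye and at 600 nm.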

[1] = Escherichia coli, 25922, read-out: Ec 25922 (MIC)
[2] = Escherichia coli, 25922, E. coli strain 25922, read-out: Ec 25922 (MIC)

| SMILES | MIC (E. coli containing KPC-2) | MIC (E. coli strain 25922; [1]) | MIC (E. coli strain 25922; [2]) |
| --- | --- | --- | --- |
| NCCCNCc1cn(C[C@@H]2[C@H](NC(=O)/C(=N\OC3(C(=O)O)CC3)c3csc(N)n3)C(=O)N2S(=O)(=O)O)nn1 [Example 69, 1-(((Z)-(2-(((2R,3S)-2-((4-(((3-aminopropyl)amino)methyl)-1H-1,2,3-triazol-1-yl)methyl)-4-oxo-1-sulfoazetidin-3-yl)amino)-1-(2-aminothiazol-4-yl)-2-oxoethylidene)amino)oxy)cyclopropanecarboxylic acid compound with formic acid (1:1)] | 0.125 µg/mL (≈ 0.213 µM) | 0.25 µg/mL (≈ 0.426 µM) | – |
| CC(C)(O/N=C(\C(=O)N[C@@H]1C(=O)N(S(=O)(=O)O)[C@@H]1CN1CCN(CCN)C1=O)c1csc(N)n1)C(=O)O [Example 70, 2-(((Z)-(2-(((2R,3S)-2-((3-(2-aminoethyl)-2-oxoimidazolidin-1-yl)methyl)-4-oxo-1-sulfoazetidin-3-yl)amino)-1-(2-aminothiazol-4-yl)-2-oxoethylidene)amino)oxy)-2-methylpropanoic acid] | 8 µg/mL (≈ 14.2 µM) | – | 8 µg/mL (≈ 14.2 µM) |
| N=C(N[C@H]1CCNC1)c1ccc(OC[C@H](O/N=C(\C(=O)N[C@@H]2C(=O)N(S(=O)(=O)O)[C@@H]2Cn2cncn2)c2csc(N)n2)C(=O)O)cc1 [Example 71, (S)-2-(((Z)-(2-(((2R,3S)-2-((1H-1,2,4-triazol-1-yl)methyl)-4-oxo-1-sulfoazetidin-3-yl)amino)-1-(2-aminothiazol-4-yl)-2-oxoethylidene)amino)oxy)-3-(4-(N—((S)-pyrrolidin-3-yl)carbamimidoyl)phenoxy)propanoic acid] | 0.25 µg/mL (≈ 0.361 µM) | – | 0.25 µg/mL (≈ 0.361 µM) |
| CC(C)(O/N=C(\C(=O)N[C@@H]1C(=O)N(S(=O)(=O)O)[C@@H]1CN1C[C@H](CO)OC1=O)c1csc(N)n1)C(=O)O [Example 72, 2-(((Z)-(1-(2-aminothiazol-4-yl)-2-(((2R,3S)-2-(((R)-5-(hydroxymethyl)-2-oxooxazolidin-3-yl)methyl)-4-oxo-1-sulfoazetidin-3-yl)amino)-2-oxoethylidene)amino)oxy)-2-methylpropanoic acid] | 4 µg/mL (≈ 7.27 µM) | – | 4 µg/mL (≈ 7.27 µM) |
| N=C(N[C@@H]1CCNC1)c1ccc(OC[C@H](O/N=C(\C(=O)N[C@@H]2C(=O)N(S(=O)(=O)O)[C@@H]2Cn2cncn2)c2csc(N)n2)C(=O)O)cc1 [Example 73, (S)-2-(((Z)-(2-(((2R,3S)-2-((1H-1,2,4-triazol-1-yl)methyl)-4-oxo-1-sulfoazetidin-3-yl)amino)-1-(2-aminothiazol-4-yl)-2-oxoethylidene)amino)oxy)-3-(4-(N—((R)-pyrrolidin-3-yl)carbamimidoyl)phenoxy)propanoic acid] | 0.25 µg/mL (≈ 0.361 µM) | – | 0.25 µg/mL (≈ 0.361 µM) |
| CC(C)(O/N=C(\C(=O)N[C@@H]1C(=O)N(S(=O)(=O)O)[C@@H]1Cn1cnc(C(N)=O)n1)c1csc(N)n1)C(=O)O [Example 74, 2-(((Z)-(1-(2-aminothiazol-4-yl)-2-(((2R,3S)-2-((3-carbamoyl-1H-1,2,4-triazol-1-yl)methyl)-4-oxo-1-sulfoazetidin-3-yl)amino)-2-oxoethylidene)amino)oxy)-2-methylpropanoic acid] | 32 µg/mL (≈ 58.7 µM) | – | 8 µg/mL (≈ 14.7 µM) |
| N=C(NC1CCNCC1)c1ccc(OC[C@H](O/N=C(\C(=O)N[C@@H]2C(=O)N(S(=O)(=O)O)[C@@H]2Cn2cncn2)c2nsc(N)n2)C(=O)O)cc1 [Example 75, (S)-2-(((Z)-(2-(((2R,3S)-2-((1H-1,2,4-triazol-1-yl)methyl)-4-oxo-1-sulfoazetidin-3-yl)amino)-1-(5-amino-1,2,4-thiadiazol-3-yl)-2-oxoethylidene)amino)oxy)-3-(4-(N-(piperidin-4-yl)carbamimidoyl)phenoxy)propanoic acid] | 0.5 µg/mL (≈ 0.707 µM) | – | 0.5 µg/mL (≈ 0.707 µM) |
| CC(C)(O/N=C(\C(=O)N[C@@H]1C(=O)N(S(=O)(=O)O)[C@@H]1CN1CC[C@H](N)C1=O)c1csc(N)n1)C(=O)O [Example 76, 2-(((Z)-(2-(((2R,3S)-2-(((S)-3-amino-2-oxopyrrolidin-1-yl)methyl)-4-oxo-1-sulfoazetidin-3-yl)amino)-1-(2-aminothiazol-4-yl)-2-oxoethylidene)amino)oxy)-2-methylpropanoic acid] | 0.5 µg/mL (≈ 0.937 µM) | – | 1 µg/mL (≈ 1.87 µM) |
| N=C(N[C@H]1C[C@H](N)C1)c1ccc(OC[C@H](O/N=C(\C(=O)N[C@@H]2C(=O)N(S(=O)(=O)O)[C@@H]2Cn2cncn2)c2csc(N)n2)C(=O)O)cc1 [Example 77, (S)-2-(((Z)-(2-(((2R,3S)-2-((1H-1,2,4-triazol-1-yl)methyl)-4-oxo-1-sulfoazetidin-3-yl)amino)-1-(2-aminothiazol-4-yl)-2-oxoethylidene)amino)oxy)-3-(4-(N-((1r,3S)-3-aminocyclobutyl)carbamimidoyl)phenoxy)propanoic acid] | 0.125 µg/mL (≈ 0.181 µM) | – | 0.25 µg/mL (≈ 0.361 µM) |
| N=C(NCCCN)c1ccc(OC[C@H](O/N=C(\C(=O)N[C@@H]2C(=O)N(S(=O)(=O)O)[C@@H]2Cn2cncn2)c2csc(N)n2)C(=O)O)cc1 [Example 78, (S)-2-(((Z)-(2-(((2R,3S)-2-((1H-1,2,4-triazol-1-yl)methyl)-4-oxo-1-sulfoazetidin-3-yl)amino)-1-(2-aminothiazol-4-yl)-2-oxoethylidene)amino)oxy)-3-(4-(N-(3-aminopropyl)carbamimidoyl)phenoxy)propanoic acid] | 0.125 µg/mL (≈ 0.184 µM) | – | ≤ 0.06 µg/mL |
| N=C(NC1CCNCC1)c1ccc(OC[C@H](O/N=C(\C(=O)N[C@@H]2C(=O)N(S(=O)(=O)O)[C@@H]2Cn2cncn2)c2csc(N)n2)C(=O)O)cn1 [Example 79, (S)-2-(((Z)-(2-(((2R,3S)-2-((1H-1,2,4-triazol-1-yl)methyl)-4-oxo-1-sulfoazetidin-3-yl)amino)-1-(2-aminothiazol-4-yl)-2-oxoethylidene)amino)oxy)-3-((6-(N-(piperidin-4-yl)carbamimidoyl)pyridin-3-yl)oxy)propanoic acid] | 0.25 µg/mL (≈ 0.354 µM) | – | 0.25 µg/mL (≈ 0.354 µM) |
| CC(C)(O/N=C(\C(=O)N[C@@H]1C(=O)N(S(=O)(=O)O)[C@@H]1CN1CC[C@H](NC(=N)N)C1=O)c1csc(N)n1)C(=O)O [Example 80, 2-(((Z)-(1-(2-aminothiazol-4-yl)-2-(((2R,3S)-2-(((S)-3-guanidino-2-oxopyrrolidin-1-yl)methyl)-4-oxo-1-sulfoazetidin-3-yl)amino)-2-oxoethylidene)amino)oxy)-2-methylpropanoic acid] | 4 µg/mL (≈ 6.95 µM) | – | 4 µg/mL (≈ 6.95 µM) |
| N=C(NC1[C@H]2CNC[C@@H]12)c1ccc(OC[C@H](O/N=C(\C(=O)N[C@@H]2C(=O)N(S(=O)(=O)O)[C@@H]2Cn2cncn2)c2csc(N)n2)C(=O)O)cc1 (stereo partly drawn) [Example 81, (S)-2-(((Z)-(2-(((2R,3S)-2-((1H-1,2,4-triazol-1-yl)methyl)-4-oxo-1-sulfoazetidin-3-yl)amino)-1-(2-aminothiazol-4-yl)-2-oxoethylidene)amino)oxy)-3-(4-(N-((1R,5S,6s)-3-azabicyclo[3.1.0]hexan-6-yl)carbamimidoyl)phenoxy)propanoic acid] | 0.125 µg/mL (≈ 0.178 µM) | 0.125 µg/mL (≈ 0.178 µM) | – |
| CC(C)(O/N=C(\C(=O)N[C@@H]1C(=O)N(S(=O)(=O)O)[C@@H]1Cc1cc(CN)on1)c1csc(N)n1)C(=O)O [Example 82, 2-(((Z)-(2-(((2R,3S)-2-((5-(aminomethyl)isoxazol-3-yl)methyl)-4-oxo-1-sulfoazetidin-3-yl)amino)-1-(2-aminothiazol-4-yl)-2-oxoethylidene)amino)oxy)-2-methylpropanoic acid] | 0.5 µg/mL (≈ 0.941 µM) | – | 0.5 µg/mL (≈ 0.941 µM) |
| CN(Cc1ccccc1)Cc1cnn(C[C@@H]2[C@H](NC(=O)/C(=N\OC(C)(C)C(=O)O)c3csc(N)n3)C(=O)N2S(=O)(=O)O)n1 [Example 83, 2-(((Z)-(1-(2-aminothiazol-4-yl)-2-(((2R,3S)-2-((4-((benzyl(methyl)amino)methyl)-2H-1,2,3-triazol-2-yl)methyl)-4-oxo-1-sulfoazetidin-3-yl)amino)-2-oxoethylidene)amino)oxy)-2-methylpropanoic acid] | 32 µg/mL (≈ 50.3 µM) | – | 32 µg/mL (≈ 50.3 µM) |
| N=C(NC1CCNCC1)c1ccc(OC[C@H](O/N=C(\C(=O)N[C@@H]2C(=O)N(S(=O)(=O)O)[C@@H]2Cn2ncc(CN)n2)c2csc(N)n2)C(=O)O)cc1 [Example 84, (S)-2-(((Z)-(2-(((2R,3S)-2-((4-(aminomethyl)-2H-1,2,3-triazol-2-yl)methyl)-4-oxo-1-sulfoazetidin-3-yl)amino)-1-(2-aminothiazol-4-yl)-2-oxoethylidene)amino)oxy)-3-(4-(N-(piperidin-4-yl)carbamimidoyl)phenoxy)propanoic acid] | 0.5 µg/mL (≈ 0.68 µM) | – | 0.5 µg/mL (≈ 0.68 µM) |
| Nc1nc(/C(=N/OC2(C(=O)O)CC2)C(=O)N[C@@H]2C(=O)N(S(=O)(=O)O)[C@@H]2Cn2ncc(CNCC3CNC3)n2)cs1 [Example 85, 1-(((Z)-(1-(2-aminothiazol-4-yl)-2-(((2R,3S)-2-((4-(((azetidin-3-ylmethyl)amino)methyl)-2H-1,2,3-triazol-2-yl)methyl)-4-oxo-1-sulfoazetidin-3-yl)amino)-2-oxoethylidene)amino)oxy)cyclopropanecarboxylic acid] | 0.5 µg/mL (≈ 0.835 µM) | – | 0.5 µg/mL (≈ 0.835 µM) |
| CC(C)(O/N=C(\C(=O)N[C@@H]1C(=O)N(S(=O)(=O)O)[C@@H]1CN1CC[C@@H](N)C1=O)c1csc(N)n1)C(=O)O [Example 86, 2-(((Z)-(2-(((2R,3S)-2-(((R)-3-amino-2-oxopyrrolidin-1-yl)methyl)-4-oxo-1-sulfoazetidin-3-yl)amino)-1-(2-aminothiazol-4-yl)-2-oxoethylidene)amino)oxy)-2-methylpropanoic acid] | 1 µg/mL (≈ 1.87 µM) | – | 1 µg/mL (≈ 1.87 µM) |
